Test results: paper PMC7156458, “Synthetic biology based construction of biological activity-related library of fungal decalin-containing diterpenoid pyrones” (Nature Communications, 2020)
“And” between values parts separate entries of the source, which are not always exact repeats. Equal entries are not always repeated. Where two headings read alike, the source gives them in different places.

Assays:
[1] = system: MCF-7 cells; test: cell cytotoxic effects against MCF-7 cells (72 h), A490; assay type: cell-based, human
[2] = system: SK-OV-3; test: cells; design: species or system JFCR39 human cancer cell lines; JFCR39 panel growth inhibition, sulforhodamine B total protein after 48 h; settings: for GI50: Homo sapiens, SK-OV-3, 48 h
Outline: (§1)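 SRB assay, 48 h drug exposure, JFCR39 panel; RPMI-1640 + 5% FBS, 37°C/5% CO2. Read-out: total cellular protein. GI50 calculated from duplicates.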

[3] = system: SF-539; test: cells; design: species or system JFCR39 human cancer cell lines; JFCR39 panel growth inhibition, sulforhodamine B total protein after 48 h; settings: for GI50: Homo sapiens, SF-539, 48 h
Outline: as §1

[4] = system: SNB-75; test: cells; design: species or system JFCR39 human cancer cell lines; JFCR39 panel growth inhibition, sulforhodamine B total protein after 48 h; settings: for GI50: Homo sapiens, SNB-75, 48 h
Outline: as §1

[5] = system: MAGI cells; test: cytotoxicity in the anti-HIV assay (CC50); assay type: cell-based; settings: for Cytotoxicity Avg.: average of numeric determinations
[6] = cytotoxicity in Drosophila DL1 cells; assay type: cell-based; settings: Drosophila, DL1 cells (embryonic macrophage-derived), DL1 cells
Description: (§2) We screened the DDPs on the Drosophila assay system for cytotoxicity, inhibitory activity of innate immune signalling and insecticidal activity. The cytotoxicity of the DDPs was evaluated using two cell lines, embryonic macrophage-derived DL1 cells[58]–[60] and larval blood cell-derived l(2)mbn cells, and their IC50 values are listed in Supplementary Table 23.

[7] = system: DL1 cells; test: cytotoxicity in Drosophila DL1 cells; assay type: cell-based; settings: DL1 cells; for IC50: Drosophila melanogaster, cytotoxicity
Description: as §2

[8] = cytotoxicity in Drosophila l(2)mbn cells; assay type: cell-based; settings: Drosophila, l(2)mbn cells (larval blood cell-derived)
Description: as §2

[9] = system: l(2)mbn cells; test: cytotoxicity in Drosophila l(2)mbn cells; assay type: cell-based; settings: for Luminescence Raw1: replicate 1; for Luminescence Raw2: replicate 2; for IC50: Drosophila melanogaster, cytotoxicity
Description: as §2

[10] = Homo sapiens, MCF7, 72 h, MCF-7, 72 h, 0.1 µM (DMSO 0.002%), read-out: A490 (control =1) ave
[11] = MCF-7, 72 h, 0.1 µM (DMSO 0.002%), control 1.064
[12] = MCF-7, 72 h, 1 µM (DMSO 0.02%), control 1.104
[13] = MCF-7, 72 h, 10 µM (DMSO 0.2%), control 1.049
[14] = replicate 1, relative to DMSO 1%, read-out: % viability, viability 1
[15] = replicate 2, relative to DMSO 1%, read-out: % viability, viability 2
[16] = average of two replicates, read-out: IC50 Average
[17] = replicate 1, read-out: IC50 (1)
[18] = replicate 2, read-out: IC50 (2)
[19] = 48 h, inhibitor, Log GI50, 48 h

## C=C1CC[C@@H]2[C@](C)(CC[C@H]3O[C@H](C=C(C)C)C[C@@]23C)[C@@H]1Cc1c(OC)oc(C)c(C)c1=O [Compound 22, O-methylated higginsianin A]
[1]
  cytotoxicity against the bulk of MCF-7 cells: dose-dependent cytotoxicity
[1]; [10]
  viability at 0.1 µM: 81.4%
[1]; Homo sapiens, MCF7, 72 h, MCF-7, 72 h, 1 µM (DMSO 0.02%), read-out: A490 (control =1) ave
  viability at 1 µM: 48%
[1]; Homo sapiens, MCF7, 72 h, MCF-7, 72 h, 10 µM (DMSO 0.2%), read-out: A490 (control =1) ave
  viability at 10 µM: 30.1%
[1]; [11]
  A490 ave: 0.866
[1]; [12]
  A490 ave: 0.530
[1]; [13]
  A490 ave: 0.316
[2]
  GI50: 10.6 µM
[3]
  GI50: 10.5 µM
[4]
  GI50: 10 µM
[5]
  Cytotoxicity Avg.: 5.079 µM
[5]; single determinations
  Cytotoxicity: 5.68 µM and 5.915 µM and 3.643 µM

## C=C1CCC2C(C)(CCC=C(C)C)C(O)CCC2(C)C1Cc1c(OC)oc(CO)c(C)c1=O (stereo not drawn) [Compound 12]
[1]
  cytotoxicity against the bulk of MCF-7 cells: dose-dependent cytotoxicity
[1]; [10]
  viability at 0.1 µM: 72.1%
[1]; [11]
  A490 ave: 0.767
[1]; [12]
  A490 ave: 0.265
[1]; [13]
  A490 ave: 0.189
[2]
  GI50: 12.6 µM
[3]
  GI50: 11.5 µM
[4]
  GI50: 18.4 µM
[6]; [14]
  viability at 0.04 µM: 96.8%
  viability at 0.2 µM: 86.4%
  viability at 1 µM: 8.66%
  viability at 4 µM: 5.97%
  viability at 10 µM: 6.32%
  viability at 20 µM: 3.83%
[6]; [15]
  viability at 0.04 µM: 104%
  viability at 0.2 µM: 86.2%
  viability at 1 µM: 7.51%
  viability at 4 µM: 5.72%
  viability at 10 µM: 6.35%
  viability at 20 µM: 4.39%
[7]; 0.04 µM, replicate 1
  Luminescence Raw1: 1994873
[7]; 0.04 µM, replicate 2
  Luminescence Raw2: 2143826
[7]; 0.2 µM, replicate 1
  Luminescence Raw1: 1779203
[7]; 0.2 µM, replicate 2
  Luminescence Raw2: 1776317
[7]; 1 µM, replicate 1
  Luminescence Raw1: 178477
[7]; 1 µM, replicate 2
  Luminescence Raw2: 154679
[7]; 4 µM, replicate 1
  Luminescence Raw1: 122950
[7]; 4 µM, replicate 2
  Luminescence Raw2: 117902
[7]; 10 µM, replicate 1
  Luminescence Raw1: 130161
[7]; 10 µM, replicate 2
  Luminescence Raw2: 130882
[7]; 20 µM, replicate 1
  Luminescence Raw1: 78962
[7]; 20 µM, replicate 2
  Luminescence Raw2: 90500
[7]; [16]
  IC50: 0.342 µM
[7]; average±SEM, read-out: IC50
  IC50: 0.34 ± 0.03 µM
[7]; [17]
  IC50: 0.371 µM
[7]; [18]
  IC50: 0.314 µM
[8]; [14]
  viability at 0.04 µM: 139%
  viability at 0.2 µM: 156%
  viability at 1 µM: 112%
  viability at 4 µM: 16.2%
  viability at 10 µM: 7.07%
  viability at 20 µM: 7.38%
[8]; [15]
  viability at 0.04 µM: 135%
  viability at 0.2 µM: 139%
  viability at 1 µM: 136%
  viability at 4 µM: 12.9%
  viability at 10 µM: 6.84%
  viability at 20 µM: 6.31%
[9]; 0.04 µM
  Luminescence Raw1: 3578369
  Luminescence Raw2: 3458604
[9]; 0.2 µM
  Luminescence Raw1: 4007302
  Luminescence Raw2: 3578369
[9]; 1 µM
  Luminescence Raw1: 2865222
  Luminescence Raw2: 3493234
[9]; 4 µM
  Luminescence Raw1: 415037
  Luminescence Raw2: 331384
[9]; 10 µM
  Luminescence Raw1: 181387
  Luminescence Raw2: 175618
[9]; 20 µM
  Luminescence Raw1: 189320
  Luminescence Raw2: 161917
[9]; [16]
  IC50: 3.29 µM
[9]; average±SEM, read-out: IC50
  IC50: 3.29 ± 0.16 µM
[9]; [17]
  IC50: 3.13 µM
[9]; [18]
  IC50: 3.45 µM

## C=C1CCC2C(C)(CCC=C(C)C)C(O)CCC2(C)C1Cc1c(OC)oc(CO)c(C)c1=O (stereo not drawn) [Compound 16]
[1]
  cytotoxicity against the bulk of MCF-7 cells: Low-toxicity
[1]; [11]
  A490 ave: 0.808
[1]; [12]
  A490 ave: 1.178
[1]; [13]
  A490 ave: 0.730
[2]; [19]
  Log GI50: -4.993 M
[3]; [19]
  Log GI50: -4.953 M
[4]; [19]
  Log GI50: -4.827 M
[5]
  Cytotoxicity Avg.: 6.65 µM
